Tests used:
Format in all cases: in vivo, human
[1] = system: post-menopausal women with heart failure; experiment: six minute walking test (6MWT), exercise tolerance; settings: for 6MWT distance walked: 300 mcg/day transdermal patch
Protocol: (§1) Thirty-two (32) patients enrolled in the trial. […] Testosterone was administered to the patients as Intrinsa, which is available in Europe.
(§2) The clinical trial design involved: (A) evaluation of inclusion/exclusion criteria and study agreement; (B) visit (blood pressure, heart rate and NYHA classification); (C) six minute walking test, endothelial function, ergospirometry (when possible), muscle strength (isometric and isokinetic) and blood samples; and then (D) randomization to testosterone or placebo. The following follow-ups were conducted: six weeks (B); twelve weeks (B+C); 18 weeks (B); and 24 weeks (B+C).
In the 6MWT, each patient started by standing at a known beginning location point. Each patient then walked as much as possible within a 6-minute timeframe. At the end of the 6-minute timeframe, the ending location of each patient was identified. The distance each patient walked was calculated by measuring (in meters) the distance between the beginning and end points for each patient.

[2] = system: post-menopausal women with heart failure; experiment: maximal oxygen consumption (MVO2) by ergospirometry
Protocol: Thirty-two (32) patients enrolled in the trial.
The following follow-ups were conducted: six weeks (B); twelve weeks (B+C); 18 weeks (B); and 24 weeks (B+C).
Maximal oxygen consumption (“MVO2;” also “VO2 max”) is the maximum volume of oxygen that the body can consume during intense, whole-body exercise, while breathing air at sea level. This volume is expressed as a rate, which is in ml/kg/min. As oxygen consumption is linearly related to energy expenditure, the measurement of oxygen consumption is an indirect measurement of an individual's maximal capacity to do work aerobically.

[3] = system: post-menopausal women with heart failure; experiment: muscle isometric strength, maximal voluntary contraction (MVC)
Protocol: as §1, §2
Isometric strength was the highest force developed by patients in three, 5-second maximal voluntary contractions (“MVC”) separated by 1 minute of rest. The knee angle was fixed at 80° (full extension considered 0°). Results are reported at Tables 9-10 and FIGS. 8-10.

[4] = system: post-menopausal women with heart failure; experiment: muscle isokinetic strength, peak torque
Protocol: as §1, §2
Isokinetic strength was assessed by evaluating the highest peak torque achieved in a five maximal repetition test of concentric knee extension/flexion performed at 90 degree/sec. The range of motion was 50°. Results are reported at Tables 11-12 and FIGS. 11-13.

[5] = system: post-menopausal women with heart failure; experiment: NYHA classification improvement
Protocol: as §1, §2
NYHA Classification was determined for each individual at three months and at six months of treatment.

[6] = system: post-menopausal women with heart failure; experiment: high-density lipoprotein (HDL) measurement
Protocol: as §1, §2
High-density lipoprotein (“HDL”) was measured.

[7] = system: post-menopausal women with heart failure; experiment: drop-outs and adverse events during the clinical study; settings: testosterone group of 20 patients
Protocol: as §1
During the clinical study, two patients dropped out of the testosterone group, and one patient dropped out of the placebo group. […] The patient who dropped out of the placebo group was a no-show at the 6-week meeting and was reported to have stopped the treatment. Of the testosterone group, six patients referred mild skin irritation at the patch site and continued therapy. Of the placebo group, two patients referred mild skin irritation at the patch site and continued therapy. […] These two patients continued the testosterone treatment. Two patients in the placebo group had worsening heart failure that required hospital admission (one patient had one episode of worsening heart failure; the other patient had two episodes of worsening heart failure). These two patients continued with the patch.

C[C@]12CC[C@H]3[C@@H](CCC4=CC(=O)CC[C@@]43C)[C@@H]1CC[C@@H]2O [Testosterone, testosterone]
6MWT percent change from baseline ([1]; 3 months): 35.7% change | 6MWT change in distance walked ([1]; 3 months vs baseline): 93 Δ m | 6MWT distance walked ([1]; 3 months): 353 m | 6MWT percent change from baseline ([1]; 6 months): 39.2% change | 6MWT change in distance walked ([1]; 6 months vs baseline): 102 Δ m | 6MWT distance walked ([1]; 6 months): 362 m | 6MWT distance walked ([1]; baseline, testosterone group): 260 m | MVO2 percent change from baseline ([2]; 3 months): 21% change | MVO2 percent change from baseline ([2]; 6 months): 28% change | MVO2 percent change from baseline ([2]; 6 months, listed as testosterone): over 25 % change | maximal oxygen consumption peak (MVO2) ([2]; baseline, testosterone group): 10.54 mL/min/kg | MVC percent change from baseline ([3]; 3 months): 37.8% change | isometric strength, maximal voluntary contraction (MVC) ([3]; 3 months): 89.4 N | MVC percent change from baseline ([3]; 6 months): 47.6% change | isometric strength, maximal voluntary contraction (MVC) ([3]; 6 months): 95.7 N | isometric strength, maximal voluntary contraction (MVC) ([3]; baseline, testosterone group): 64.85 N | isokinetic strength, peak torque ([4]; 3 months): 58.85 N/m | peak torque percent change from baseline ([4]; 3 months): 42.32% change | isokinetic strength, peak torque ([4]; 6 months): 63.82 N/m | peak torque percent change from baseline ([4]; 6 months): 54.34% change | isokinetic strength, peak torque ([4]; baseline, testosterone group): 41.35 N/m | Percent of patients with improvement of NYHA Class and/or improvement of >15% 6 MWT (% Response) ([5]; 6 months): 80% | Percent change in NYHA Class of patients: NYHA 0 ([5]; during 6 months of treatment): 50% | Percent change in NYHA Class of patients: NYHA + 1 ([5]; during 6 months of treatment): 11% | Percent change in NYHA Class of patients: NYHA − 1 ([5]; during 6 months of treatment): 38.8% | HDL Percent Changes ([6]; 3 months): 19% | HDL level ([6]; 3 months): 43.24 mg/dL | HDL Percent Changes ([6]; 6 months): 25% | HDL level ([6]; 6 months): 43.15 mg/dL | HDL level ([6]; baseline, testosterone group): 36.9 mg/dL | patients who dropped out [7]: two | patients with generalized prurigo (without lesions on the skin), discontinued treatment after 3 weeks [7]: one | patients with mild skin irritation at the patch site, continued therapy [7]: six | patients with one episode of worsening of heart failure requiring hospital admission ([7]; during the follow-up): Two
